Data reported in ChEMBL document CHEMBL1132609, “Discovery of a novel class of selective non-peptide antagonists for the human neurokinin-3 receptor. 2. Identification of (S)-N-(1-phenylpropyl)-3-hydroxy-2-phenylquinoline-4-carboxamide (SB 223412)” (J Med Chem, 1999).

Columns and labels:
[1] = target: T1, Neuromedin-K receptor (Homo sapiens, UniProt P29371); test: Binding affinity towards cloned human Tachykinin receptor 3 (hNK-3) expressed in CHO cells using [125I][MePhe7]-NKB; format: cell-based
T1 sequence (P29371 whole entry): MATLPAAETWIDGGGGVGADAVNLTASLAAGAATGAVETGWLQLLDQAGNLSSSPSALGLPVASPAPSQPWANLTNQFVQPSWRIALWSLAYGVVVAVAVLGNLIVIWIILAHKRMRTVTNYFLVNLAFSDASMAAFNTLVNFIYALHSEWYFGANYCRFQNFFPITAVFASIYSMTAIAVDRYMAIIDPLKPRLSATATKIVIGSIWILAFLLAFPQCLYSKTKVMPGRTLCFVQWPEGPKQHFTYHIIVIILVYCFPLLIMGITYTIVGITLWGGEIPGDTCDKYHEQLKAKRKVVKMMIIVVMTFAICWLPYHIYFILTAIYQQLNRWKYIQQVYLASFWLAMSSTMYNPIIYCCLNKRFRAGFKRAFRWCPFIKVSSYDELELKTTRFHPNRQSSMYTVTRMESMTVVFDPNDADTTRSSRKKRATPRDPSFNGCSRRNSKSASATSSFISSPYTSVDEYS

[2] = target: T2, Substance-K receptor (Homo sapiens, UniProt P21452); test: Binding affinity towards cloned human Tachykinin receptor 2 (hNK-2) expressed in CHO cells using [125I]NKA
T2 sequence (P21452 whole entry): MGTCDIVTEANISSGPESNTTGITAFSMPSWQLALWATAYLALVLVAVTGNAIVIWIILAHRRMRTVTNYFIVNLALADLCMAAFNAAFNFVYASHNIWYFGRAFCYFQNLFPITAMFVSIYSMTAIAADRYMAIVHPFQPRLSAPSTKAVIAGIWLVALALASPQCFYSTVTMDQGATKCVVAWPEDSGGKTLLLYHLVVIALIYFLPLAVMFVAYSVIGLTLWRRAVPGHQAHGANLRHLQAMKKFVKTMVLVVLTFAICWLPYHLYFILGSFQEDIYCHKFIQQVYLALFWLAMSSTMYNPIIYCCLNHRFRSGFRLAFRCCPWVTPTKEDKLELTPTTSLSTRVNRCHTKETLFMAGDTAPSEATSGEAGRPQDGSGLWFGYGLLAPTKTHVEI

[3] = target: Substance-P receptor (Homo sapiens, UniProt P25103); test: Binding affinity towards cloned human Tachykinin receptor 1 (hNK-1) expressed in CHO cells using [3H]substance P
Chain of Substance-P receptor (P25103 whole entry): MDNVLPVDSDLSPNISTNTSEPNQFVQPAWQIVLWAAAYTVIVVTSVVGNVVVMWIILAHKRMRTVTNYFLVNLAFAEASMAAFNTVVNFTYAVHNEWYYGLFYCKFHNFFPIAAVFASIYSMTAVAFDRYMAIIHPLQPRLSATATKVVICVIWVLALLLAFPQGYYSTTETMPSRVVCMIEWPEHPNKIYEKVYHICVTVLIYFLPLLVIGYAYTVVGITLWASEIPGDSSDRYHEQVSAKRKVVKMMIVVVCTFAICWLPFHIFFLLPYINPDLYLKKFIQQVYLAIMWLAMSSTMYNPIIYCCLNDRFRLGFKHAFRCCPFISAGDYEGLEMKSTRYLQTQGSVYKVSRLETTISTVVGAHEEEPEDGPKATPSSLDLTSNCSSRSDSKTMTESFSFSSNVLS

[4] = target: Neuromedin-K receptor (Oryctolagus cuniculus); test: In vitro functional activity as antagonism of senktide-induced contractions in RISM (Rabbit Isolated Iris Sphincter Muscle) containing NK-3 receptor

Compound | Ki [1] | also measured
CCC(NC(=O)c1c(-c2ccccc2)c(-c2ccccc2)nc2ccccc12)c1ccccc1 (stereo not drawn) | 45.3 nM | –
CC[C@@H](NC(=O)c1cc(-c2ccccc2)nc2ccccc12)c1ccccc1 | – | Ki [2]: 237 nM; Ki [3]: > 100000 nM
CC[C@@H](NC(=O)c1c(OCC(=O)O)c(-c2ccccc2)nc2ccccc12)c1ccccc1 | – | Ki [2]: 214 nM; Ki [3]: > 100000 nM
CCCCC(NC(=O)c1cc(-c2ccccc2)nc2ccccc12)c1ccccc1 (stereo not drawn) | 146 nM | –
CCC(NC(=O)c1c(OC)c(-c2ccccc2)nc2ccccc12)c1ccccc1 (single isomer, unassigned) [listing 1 of 2 here] | 1.8 nM | Ki [2]: 329 nM; Ki [3]: > 100000 nM
CCC(NC(=O)c1c(OCCN2CCCC2)c(-c2ccccc2)nc2ccccc12)c1ccccc1 (single isomer, unassigned) | 6.8 nM | –
CCC(NC(=O)c1c(OCCCN(C)C)c(-c2ccccc2)nc2ccccc12)c1ccccc1 (single isomer, unassigned) | 8.6 nM | –
O=C(NC(c1ccccc1)c1ccccc1)c1cc(-c2ccccc2)nc2ccccc12 | 134 nM | –
CCCC(NC(=O)c1cc(-c2ccccc2)nc2ccccc12)c1ccccc1 (stereo not drawn) | 47.2 nM | –
CC[C@@H](NC(=O)c1c(Cl)c(-c2ccccc2)nc2ccccc12)c1ccccc1 | 29.9 nM | –
CC[C@@H](NC(=O)c1c(N)c(-c2ccccc2)nc2ccccc12)c1ccccc1 | – | Ki [2]: 111 nM; Ki [3]: > 100000 nM
CN(C)C(=O)C(NC(=O)c1cc(-c2ccccc2)nc2ccccc12)c1ccccc1 (stereo not drawn) | 488 nM | –
O=C(N[C@H](C(=O)O)c1ccccc1)c1cc(-c2ccccc2)nc2ccccc12 | 1650 nM | –
COCC(NC(=O)c1cc(-c2ccccc2)nc2ccccc12)c1ccccc1 (stereo not drawn) | 314 nM | –
CCCc1c(-c2ccccc2)nc2ccccc2c1C(=O)NC(CC)c1ccccc1 (stereo not drawn) | 13.7 nM | –
O=C(NC(CCO)c1ccccc1)c1cc(-c2ccccc2)nc2ccccc12 (stereo not drawn) | 382 nM | –
CCC(NC(=O)c1c(OC)c(-c2ccccc2)nc2ccccc12)c1ccccc1 (stereo not drawn) | 5.8 nM | –
CCCCCCCC(NC(=O)c1cc(-c2ccccc2)nc2ccccc12)c1ccccc1 (stereo not drawn) | 4870 nM | –
CN(C)C[C@@H](NC(=O)c1cc(-c2ccccc2)nc2ccccc12)c1ccccc1 | 1070 nM | –
CCc1c(-c2ccccc2)nc2ccccc2c1C(=O)N[C@H](CC)c1ccccc1 | – | Ki [2]: 316 nM; Ki [3]: > 100000 nM
CC[C@@H](NC(=O)c1c(OCCO)c(-c2ccccc2)nc2ccccc12)c1ccccc1 | 1.5 nM | Ki [2]: 82 nM; Ki [3]: > 100000 nM
O=C(NC(Cc1ccccc1)c1ccccc1)c1cc(-c2ccccc2)nc2ccccc12 (stereo not drawn) | 3510 nM | –
O=C(NC(c1ccccc1)C(F)(F)F)c1cc(-c2ccccc2)nc2ccccc12 (stereo not drawn) | 454 nM | –
CNC(=O)C(NC(=O)c1cc(-c2ccccc2)nc2ccccc12)c1ccccc1 (stereo not drawn) | 426 nM | –

Compound | Ki [1] | also measured
CC(C)(NC(=O)c1cc(-c2ccccc2)nc2ccccc12)c1ccccc1 | 295 nM | –
CCC(NC(=O)c1c(Br)c(-c2ccccc2)nc2ccccc12)c1ccccc1 (single isomer, unassigned) | 37.2 nM | –
CCC(NC(=O)c1c(NC(C)=O)c(-c2ccccc2)nc2ccccc12)c1ccccc1 (single isomer, unassigned) | 15.9 nM | –
O=C(NC1(c2ccccc2)CCCC1)c1cc(-c2ccccc2)nc2ccccc12 | 129 nM | –
CCC(NC(=O)c1c(OCCN(C)C)c(-c2ccccc2)nc2ccccc12)c1ccccc1 (single isomer, unassigned) | 5.7 nM | –
CCOC(=O)COc1c(-c2ccccc2)nc2ccccc2c1C(=O)NC(CC)c1ccccc1 (single isomer, unassigned) | 2 nM | –
CC[C@@H](NC(=O)c1c(C)c(-c2ccccc2)nc2ccccc12)c1ccccc1 | – | Ki [2]: 277 nM; Ki [3]: > 100000 nM
CCC(NC(=O)c1c(OCC(N)=O)c(-c2ccccc2)nc2ccccc12)c1ccccc1 (single isomer, unassigned) | 6.3 nM | –
CC[C@@H](NC(=O)c1c(F)c(-c2ccccc2)nc2ccccc12)c1ccccc1 | 30.3 nM | –
CC(=O)C(NC(=O)c1cc(-c2ccccc2)nc2ccccc12)c1ccccc1 (stereo not drawn) | 27.4 nM | –
CC[C@@H](NC(=O)c1c(CN(C)C)c(-c2ccccc2)nc2ccccc12)c1ccccc1 | 2.2 nM | Ki [2]: 172 nM; Ki [3]: > 100000 nM
CCCCc1c(-c2ccccc2)nc2ccccc2c1C(=O)NC(CC)c1ccccc1 (stereo not drawn) | 15.2 nM | –
CCCCCCc1c(-c2ccccc2)nc2ccccc2c1C(=O)NC(CC)c1ccccc1 (stereo not drawn) | 55.4 nM | –
O=C(NC(CO)c1ccccc1)c1cc(-c2ccccc2)nc2ccccc12 (stereo not drawn) | 207 nM | –
CC(NC(=O)c1cc(-c2ccccc2)nc2ccccc12)c1ccccc1 (stereo not drawn) | 264 nM | –
COC(=O)CC(NC(=O)c1cc(-c2ccccc2)nc2ccccc12)c1ccccc1 (stereo not drawn) | 973 nM | –
CCC(NC(=O)c1c(OC)c(-c2ccccc2)nc2ccccc12)c1ccccc1 (single isomer, unassigned) [listing 2 of 2 here] | – | Kb [4]: 1.8 nM
NC[C@@H](NC(=O)c1cc(-c2ccccc2)nc2ccccc12)c1ccccc1 | 1140 nM | –
CCC(NC(=O)c1c(OCCN)c(-c2ccccc2)nc2ccccc12)c1ccccc1 (single isomer, unassigned) | 4.7 nM | –
CC(C)C(NC(=O)c1cc(-c2ccccc2)nc2ccccc12)c1ccccc1 (stereo not drawn) | 74.3 nM | –
NC(=O)C(NC(=O)c1cc(-c2ccccc2)nc2ccccc12)c1ccccc1 (stereo not drawn) | 983 nM | –
CCC(NC(=O)c1c(NC(=O)CN(C)C)c(-c2ccccc2)nc2ccccc12)c1ccccc1 (single isomer, unassigned) | 10.7 nM | –
CC[C@@H](NC(=O)c1c(OCC(=O)N(C)C)c(-c2ccccc2)nc2ccccc12)c1ccccc1 | 2.4 nM | –
